Experimental data as given in ChEMBL document CHEMBL1201862, “PubChem BioAssay data set” (2004).
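Test compounds were applied to cells in 96-well plates for 48 hours at 5 doses. Abbreviation: GI50, concentration required for 50% inhibition of growth.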 The source made the active and inactive calls. No stated cut-off is given here; in the data, active = GI50 up to about 1.1 µM and inactive = higher.

Legend:
Test in all cases: growth of human tumour cells (NCI), 48 h
NCI-H226 = tested on: NCI-H226
786-0 = tested on: 786-0
CCRF-CEM = tested on: CCRF-CEM
DMS-273 = tested on: DMS-273
SF-539 = tested on: SF-539
A498 = tested on: A498
RPMI-8226 = tested on: RPMI-8226
SR = tested on: SR
HL-60 = tested on: HL-60
HCC 2998 = tested on: HCC 2998
MOLT-4 = tested on: MOLT-4
K562 = tested on: K562
SF-268 = tested on: SF-268
HOP-92 = tested on: HOP-92
M14 = tested on: M14
Malme-3M = tested on: Malme-3M
DMS-114 = tested on: DMS-114
NCI-H522 = tested on: NCI-H522
DLD-1 = tested on: DLD-1
OVCAR-4 = tested on: OVCAR-4
XF498 = tested on: XF498
SNB-78 = tested on: SNB-78
HCT-116 = tested on: HCT-116
ACHN = tested on: ACHN
M19-MEL = tested on: M19-MEL
SK-MEL-28 = tested on: SK-MEL-28
COLO 205 = tested on: COLO 205
HOP-62 = tested on: HOP-62
SK-MEL-2 = tested on: SK-MEL-2
NCI-H23 = tested on: NCI-H23
SN12C = tested on: SN12C
SNB-75 = tested on: SNB-75
SK-OV-3 = tested on: SK-OV-3
UACC-62 = tested on: UACC-62
CAKI-1 = tested on: CAKI-1
UO-31 = tested on: UO-31
IGROV-1 = tested on: IGROV-1
LXFL 529 = tested on: LXFL 529
SF-295 = tested on: SF-295
KM-20L2 = tested on: KM-20L2
OVCAR-8 = tested on: OVCAR-8
UACC-257 = tested on: UACC-257
SNB-19 = tested on: SNB-19
TK-10 = tested on: TK-10
U-251 = tested on: U-251
NCI-H460 = tested on: NCI-H460
OVCAR-5 = tested on: OVCAR-5
RXF 393 = tested on: RXF 393
SW-620 = tested on: SW-620
HT-29 = tested on: HT-29
LOX IMVI = tested on: LOX IMVI
HCT-15 = tested on: HCT-15
SK-MEL-5 = tested on: SK-MEL-5
KM12 = tested on: KM12
EKVX = tested on: EKVX
A549 = tested on: A549

Question: For `COc1ccc(/C=N/Nc2nc(C)c3c(n2)Nc2ccccc2NC3=O)cc1`, which GI50 (NCI-H226) is on record?
Answer: > 100 µM (inactive)

Question: What about the GI50 (786-0) of the same compound?
Answer: > 100 µM (inactive)

Question: What about the GI50 (CCRF-CEM) of the same compound?
Answer: > 100 µM (inactive)

Question: What about the GI50 (DMS-273) of the same compound?
Answer: > 100 µM (inactive)

Question: And the GI50 (SF-539)?
Answer: > 100 µM (inactive)

Question: And the GI50 (A498)?
Answer: > 100 µM (inactive)

Question: What about the GI50 (RPMI-8226) of the same compound?
Answer: > 100 µM (inactive)

Question: And the GI50 (SR)?
Answer: > 100 µM (inactive)

Question: What about the GI50 (HL-60) of the same compound?
Answer: > 100 µM (inactive)

Question: And the GI50 (HCC 2998)?
Answer: > 100 µM (inactive)

Question: And the GI50 (MOLT-4)?
Answer: > 100 µM (inactive)

Question: What about the GI50 (K562) of the same compound?
Answer: > 100 µM (inactive)

Question: And the GI50 (SF-268)?
Answer: > 100 µM (inactive)

Question: And the GI50 (HOP-92)?
Answer: > 100 µM (inactive)

Question: And the GI50 (M14)?
Answer: > 100 µM (inactive)

Question: What about the GI50 (Malme-3M) of the same compound?
Answer: > 100 µM (inactive)

Question: What about the GI50 (DMS-114) of the same compound?
Answer: > 100 µM (inactive)

Question: And the GI50 (NCI-H522)?
Answer: > 100 µM (inactive)

Question: And the GI50 (DLD-1)?
Answer: > 100 µM (inactive)

Question: What about the GI50 (OVCAR-4) of the same compound?
Answer: > 100 µM (inactive)

Question: And the GI50 (XF498)?
Answer: > 100 µM (inactive)

Question: And the GI50 (SNB-78)?
Answer: > 100 µM (inactive)

Question: And the GI50 (HCT-116)?
Answer: > 100 µM (inactive)

Question: And the GI50 (ACHN)?
Answer: > 100 µM (inactive)

Question: What about the GI50 (M19-MEL) of the same compound?
Answer: > 100 µM (inactive)

Question: And the GI50 (SK-MEL-28)?
Answer: > 100 µM (inactive)

Question: What about the GI50 (COLO 205) of the same compound?
Answer: > 100 µM (inactive)

Question: What about the GI50 (HOP-62) of the same compound?
Answer: > 100 µM (inactive)

Question: What about the GI50 (SK-MEL-2) of the same compound?
Answer: > 100 µM (inactive)

Question: What about the GI50 (NCI-H23) of the same compound?
Answer: > 100 µM (inactive)

Question: What about the GI50 (SN12C) of the same compound?
Answer: > 100 µM (inactive)

Question: And the GI50 (SNB-75)?
Answer: 42.6 µM (inactive)

Question: And the GI50 (SK-OV-3)?
Answer: > 100 µM (inactive)

Question: What about the GI50 (UACC-62) of the same compound?
Answer: > 100 µM (inactive)

Question: What about the GI50 (CAKI-1) of the same compound?
Answer: > 100 µM (inactive)

Question: And the GI50 (UO-31)?
Answer: > 100 µM (inactive)

Question: And the GI50 (IGROV-1)?
Answer: > 100 µM (inactive)

Question: What about the GI50 (LXFL 529) of the same compound?
Answer: 76.7 µM (inactive)

Question: `Cc1ccc(N2C(=O)/C(=C3\Sc4c(nc(C)n(C)c4=O)N3c3ccccc3)SC2=S)cc1` was tested. Which GI50 (NCI-H226) did it give?
Answer: 26 µM (inactive)

Question: And the GI50 (786-0)?
Answer: 36.9 µM (inactive)

Question: What about the GI50 (CCRF-CEM) of the same compound?
Answer: > 100 µM (inactive)

Question: And the GI50 (DMS-273)?
Answer: 25.2 µM (inactive)

Question: And the GI50 (SF-539)?
Answer: 15.3 µM (inactive)

Question: What about the GI50 (A498) of the same compound?
Answer: 30.1 µM (inactive)

Question: What about the GI50 (RPMI-8226) of the same compound?
Answer: > 100 µM (inactive)

Question: And the GI50 (SF-295)?
Answer: 52.7 µM (inactive)

Question: And the GI50 (SR)?
Answer: > 100 µM (inactive)

Question: And the GI50 (KM-20L2)?
Answer: > 100 µM (inactive)

Question: And the GI50 (HL-60)?
Answer: > 100 µM (inactive)

Question: What about the GI50 (OVCAR-8) of the same compound?
Answer: 27.9 µM (inactive)

Question: What about the GI50 (HCC 2998) of the same compound?
Answer: > 100 µM (inactive)

Question: What about the GI50 (UACC-257) of the same compound?
Answer: > 100 µM (inactive)

Question: And the GI50 (SNB-19)?
Answer: 49.4 µM (inactive)

Question: What about the GI50 (MOLT-4) of the same compound?
Answer: > 100 µM (inactive)

Question: And the GI50 (K562)?
Answer: > 100 µM (inactive)

Question: What about the GI50 (SF-268) of the same compound?
Answer: 34.6 µM (inactive)

Question: And the GI50 (HOP-92)?
Answer: 33.8 µM (inactive)

Question: And the GI50 (M14)?
Answer: > 100 µM (inactive)

Question: What about the GI50 (TK-10) of the same compound?
Answer: 32.8 µM (inactive)

Question: What about the GI50 (U-251) of the same compound?
Answer: 42.7 µM (inactive)

Question: What about the GI50 (NCI-H460) of the same compound?
Answer: 19.1 µM (inactive)

Question: What about the GI50 (OVCAR-5) of the same compound?
Answer: > 100 µM (inactive)

Question: What about the GI50 (RXF 393) of the same compound?
Answer: 18.7 µM (inactive)

Question: And the GI50 (DMS-114)?
Answer: 35.6 µM (inactive)

Question: What about the GI50 (NCI-H522) of the same compound?
Answer: > 100 µM (inactive)

Question: What about the GI50 (OVCAR-4) of the same compound?
Answer: 76.9 µM (inactive)

Question: And the GI50 (XF498)?
Answer: > 100 µM (inactive)

Question: And the GI50 (SW-620)?
Answer: > 100 µM (inactive)

Question: And the GI50 (SNB-78)?
Answer: 40.8 µM (inactive)

Question: What about the GI50 (HT-29) of the same compound?
Answer: > 100 µM (inactive)

Question: What about the GI50 (HCT-116) of the same compound?
Answer: 64.7 µM (inactive)

Question: What about the GI50 (ACHN) of the same compound?
Answer: > 100 µM (inactive)

Question: What about the GI50 (M19-MEL) of the same compound?
Answer: > 100 µM (inactive)

Question: What about the GI50 (SK-MEL-28) of the same compound?
Answer: 41.1 µM (inactive)

Question: And the GI50 (COLO 205)?
Answer: > 100 µM (inactive)

Question: What about the GI50 (LOX IMVI) of the same compound?
Answer: > 100 µM (inactive)

Question: And the GI50 (HCT-15)?
Answer: > 100 µM

Question: What about the GI50 (SK-MEL-2) of the same compound?
Answer: > 100 µM (inactive)

Question: What about the GI50 (NCI-H23) of the same compound?
Answer: > 100 µM (inactive)

Question: And the GI50 (SK-MEL-5)?
Answer: 83.8 µM (inactive)

Question: What about the GI50 (SN12C) of the same compound?
Answer: 43.4 µM (inactive)

Question: What about the GI50 (SNB-75) of the same compound?
Answer: 28.6 µM (inactive)

Question: And the GI50 (SK-OV-3)?
Answer: 54.8 µM (inactive)

Question: What about the GI50 (KM12) of the same compound?
Answer: > 100 µM (inactive)

Question: What about the GI50 (EKVX) of the same compound?
Answer: > 100 µM (inactive)

Question: What about the GI50 (UACC-62) of the same compound?
Answer: 45.7 µM (inactive)

Question: What about the GI50 (CAKI-1) of the same compound?
Answer: 41.3 µM (inactive)

Question: What about the GI50 (A549) of the same compound?
Answer: 49.2 µM (inactive)

Question: What about the GI50 (UO-31) of the same compound?
Answer: > 100 µM (inactive)

Question: And the GI50 (IGROV-1)?
Answer: 48 µM (inactive)

Question: And the GI50 (LXFL 529)?
Answer: 68.7 µM (inactive)
